This is an account of results in paper PMC11354909, “Preclinical Evaluation of Soluble Epoxide Hydrolase Inhibitor AMHDU against Neuropathic Pain” (International Journal of Molecular Sciences, 2024).

Each structure is given as a SMILES string. Several values for one entry are separate records, joined by “and”; a condition that tells them apart may be missing. Equal values may be shown once. Entries after “also recorded” stand apart in the source; their conditions may differ. Read-outs that look alike come from different tables or passages of the source.

One data set relates to rat paw edema model. The data set is described as follows: Freund's adjuvant rat paw edema model (anti-inflammatory activity). In kind it is in vivo. As to conditions: for effect on paw edema (reduction of exudative reaction): day 4.
For data set [1], the system named is pain threshold of inflamed paw, adjuvant inflammation. The data set is described as follows: Randall–Selitto test in adjuvant inflammation (analgesic activity). In kind it is in vivo, rat.
In data set [2] the test system is STZ-rat neuropathic pain model. The data set is described as follows: Tactile allodynia (von Frey) in streptozotocin diabetic polyneuropathy. The format is in vivo. The method, then: To evaluate the effect of the compound on the development of neuropathic pain, tactile hyperalgesia was evaluated in diabetic polyneuropathy in rats with 2-week streptozotocin-induced diabetes (35 mg/kg intraperitoneally). Only animals with developed allodynia and hyperalgesia were taken into the experiment, with 50% pain response indices not exceeding 6 g. Groups were formed randomly (n = 6). Tactile allodynia in rats was assessed by registering the pressure at which the animals jerked the right hind paw, avoiding exposure to stimuli of increasing degree. VonFrey hairs, which are 20 monofilaments of nylon filaments of different diameters attached to plastic handles, were applied to the right hind paw in turn from below through the mesh. The comparison drug gabapentin as well as the test compound AMHDU dissolved in 10% DMSO was administered intraperitoneally in 10 mg/kg dose 60 min. before the experiment. An equivalent volume of solvent was administered to control animals. The experiment was started with a monofilament labeled 4.31. If there was no response after 5 incidents of touching, the monofilament was successively changed to the next monofilament with higher strength. […] The 50% threshold of paw retraction during successive increases and decreases in stimulus strength was determined using the UP-AND-DOWN method.

Data set [3] in a line: Pharmacokinetic study, intraperitoneal injection. The format is in vivo, male Swiss–Webster mice. The procedure:
Animal experiments were approved by the Animal Use and Care Committee of University of California, Davis. Compounds were formulated in 5% EtOH, 95% PEG400 at a concentration of 0.25 mg/mL. […] […] For compound detection in plasma, 10 µL whole blood was sampled by tail nick and transferred immediately to 50 µL water containing 0.1% EDTA. Samples were extracted as previously described and stored at −20 °C until analysis. Samples were analysed by LC-MS/MS on an Agilent SL 1200 series LC system (Agilent, Palo Alto, CA, USA) connected to a 4000 Qtrap mass spectrometer (Applied Biosystems Instrument Corporation, Foster City, CA, USA) with Turbo V ion source. Liquid chromatography was performed on a Kinetex R© C18 column (100 × 2.1 mm, 1.7 μm). The mass spectrometer was operated in positive modes with primary MRM scan of 499.377/143.153 and secondary scans of 499.377/149.190 and 499.377/166.204. Peaks were integrated using Analyst software v 1.6.3 (Ab Sciex, Washington, DC, USA) and quantified against a standard curve as previously described.

A short description of data set [4]: Acute oral toxicity (OECD test No. 423). As to conditions: for Adrenal glands mass ratio to whole body weight / Brain mass ratio to whole body weight / Heart mass ratio to whole body weight / Kidneys mass ratio to whole body weight / Liver mass ratio to whole body weight / Lungs mass ratio to whole body weight / Ovaries mass ratio to whole body weight / Spleen mass ratio to whole body weight / Thymus mass ratio to whole body weight: 2 weeks after single intragastric dose, m ± SD. The procedure:
The acute toxicity of the substance by intragastric administration to female outbred rats was studied; the toxicity class, tolerated, toxic, lethal doses and character of toxic effect were determined according to the OECD test No. 423.
Experiments were performed on sexually mature laboratory white mongrel female rats, divided into experimental and control groups. Experimental animals were administered the AMHDU substance diluted in 50% dimethyl sulfoxide solution in the recommended GOST 32644-2014 initial dose of 300 mg/kg (n = 6), as well as the maximum dose of 2000 mg/kg (n = 3) in the maximum allowable volume of 20 mL/kg once intra-gastrically. Control animals (n = 6) were injected with dimethyl sulfoxide diluted 1:1 with purified water at volumes identical to those of the experimental animals. The animals were monitored for 2 weeks, continuously for the first 4 h after injection. Routine necropsy of all surviving animals was performed on day 15.

Data set [5] addresses soluble epoxide hydrolase (sEH). The arrangement: method as in PMID 24685540. The conditions noted are these: slow tight binding sEH inhibitor; cited from earlier work.
The mark [6] stands for this setting: individual animals No. 1-4, i.p., table dose 1 mg/kg, 1 mg/kg.

On to `O=C(NCCCCCCNC(=O)NCC12CC3CC(CC(C3)C1)C2)NCC12CC3CC(CC(C3)C1)C2` [AMHDU, 1,1′-(hexane-1,6-diyl)bis(3-((adamantan-1-yl)methyl)urea)], for which the “effect on the volume of the affected limb (paw edema)” value with rat paw edema model (5 mg/kg i.p. 2 times a day for 4 days, day 4 after adjuvant) was “no significant effect”. The “reduction of the primary exudative reaction (paw edema)” value in the data set on rat paw edema model (30 mg/kg i.p. 2 times a day for 4 days, day 4 after adjuvant) is on record as “no statistically significant reduction”. Further, the “anti-inflammatory effect (overall conclusion)” value with rat paw edema model (5 and 30 mg/kg i.p.) is given as “lacks anti-inflammatory activity; also recorded: negligible anti-inflammatory effect”. The “effect on pain threshold” value in data set [1] (5 mg/kg i.p. 2 times a day for 4 days) is “no significant suppression of the pain threshold”. Moreover, in data set [1] (30 mg/kg i.p. 2 times a day for 4 days), the “increase of paw-pulling threshold” value came to 38%. Besides, the “analgesic activity compared with reference drugs” value in data set [1] (AMHDU 30 mg/kg i.p. vs celecoxib 10 mg/kg, dexamethasone 5 mg/kg) is “superior to both dexamethasone and celecoxib”. Moreover, the “analgesic activity compared with gabapentin” value in data set [2] (10 mg/kg i.p. both drugs) is on record as “comparable to standard of care gabapentin”. For the same compound, in data set [2] (10 mg/kg i.p., 60 min before the experiment), the “pain threshold relative to the control group” value is listed as 1.5 times. The “compound left in the bloodstream” value in data set [3] (4 h after injection, i.p. 1.25 mg/kg) was “none is left in the bloodstream”. Besides, in data set [3] (Swiss-Webster, mouse, whole blood, ip, i.p. 1.25 mg/kg, male mice), the AUC (as a rule, concentration integrated over time) amounted to 26 ng·h/mL. The half-life (as a rule, how long it takes for the measured level to halve) in data set [3] (Swiss-Webster, mouse, whole blood, ip, i.p. 1.25 mg/kg, male mice, read-out: half-life (Thalf)) was ~0.167 h. Besides, in data set [3] (setting [6]), the AUClast was 24 ng·h/mL and 35 ng·h/mL and 31 ng·h/mL and 16 ng·h/mL; the Cmax (in general, the highest concentration seen after dosing) is 24.32 ng/mL and 53.00 ng/mL and 31.93 ng/mL and 30.86 ng/mL; the MRT – broadly, the average time that molecules of a dose stay in the body – is 1.51 h and 1.04 h and 1.08 h and 0.55 h; the Thalf was 0.18 h and 0.16 h and 0.13 h and 0.15 h. For the same compound, the Tmax – broadly, the time at which the peak concentration occurs – in data set [3] (setting [6]) was 2.0 h and 0.5 h. This compound also came in with a Thalf in data set [3] (m ± SE of 4 mice, i.p.) of 0.16 ± 0.02 h. Moreover, the AUC(0-t) (in general, exposure summed from dosing to a finite time, without extrapolation to infinity) in data set [3] (male, Swiss-Webster, mouse, whole blood, ip, 1.25 mg/kg, m ± SE of 4 mice) amounted to 26.4 ± 8.6 ng·h/mL. In addition, in data set [3] (male, Swiss-Webster, mouse, whole blood, ip, 1.25 mg/kg, m ± SE of 4 mice, i.p., read-out: Cmax), the Cmax stood at 35 ± 12.4 ng/mL. Moreover, in data set [3] (male, Swiss-Webster, mouse, whole blood, ip, 1.25 mg/kg, m ± SE of 4 mice, i.p., read-out: MRT), the MRT is ~1 h. Besides, the Tmax in data set [3] (male, Swiss-Webster, mouse, whole blood, ip, 1.25 mg/kg, mean of 4 mice, i.p., read-out: Tmax) is 1 h. Also, in data set [4] (300 mg/kg, 2 weeks), the “Adrenal glands mass ratio, change compared to control group” value is “–8.5%”; the “Brain mass ratio, change compared to control group” value is listed as “–0.1%”; the “Heart mass ratio, change compared to control group” value is given as “–6.4%”; the “Kidneys mass ratio, change compared to control group” value is listed as “–3.1%”. In data set [4] (300 mg/kg, 2 weeks), the “Liver mass ratio, change compared to control group” value is 2.1%; the “Lungs mass ratio, change compared to control group” value is reported as “–3.5%”; the “Ovaries mass ratio, change compared to control group” value is “–1.0%”; the “Spleen mass ratio, change compared to control group” value is reported as 0.5%. Further, the “Thymus mass ratio, change compared to control group” value in data set [4] (300 mg/kg, 2 weeks) is recorded as “–4.1%”. Further, in data set [4] (300 mg/kg), the “Adrenal glands mass ratio to whole body weight” value was determined as 0.04 ± 0.004%, the “Brain mass ratio to whole body weight” value came to 0.72 ± 0.02%, the “Heart mass ratio to whole body weight” value is listed as 0.33 ± 0.01% and the “Kidneys mass ratio to whole body weight” value stood at 0.62 ± 0.02%. In addition, in data set [4] (300 mg/kg), the “Liver mass ratio to whole body weight” value was 3.03 ± 0.12%, the “Lungs mass ratio to whole body weight” value was found to be 0.60 ± 0.04%, the “Ovaries mass ratio to whole body weight” value came to 0.05 ± 0.003% and the “Spleen mass ratio to whole body weight” value turned out to be 0.48 ± 0.01%. For the same compound, the “Thymus mass ratio to whole body weight” value in data set [4] (300 mg/kg) was 0.17 ± 0.03%. Moreover, in data set [4] (2000 mg/kg, 2 weeks), the “Adrenal glands mass ratio, change compared to control group” value was “–14.4%”; the “Brain mass ratio, change compared to control group” value is given as “–0.3%”; the “Heart mass ratio, change compared to control group” value is reported as “–10.4%”; the “Kidneys mass ratio, change compared to control group” value is reported as 0.4%. In addition, in data set [4] (2000 mg/kg, 2 weeks), the “Liver mass ratio, change compared to control group” value is reported as “–6.4%”; the “Lungs mass ratio, change compared to control group” value is recorded as “–10.7%”; the “Ovaries mass ratio, change compared to control group” value is reported as 18.3%; the “Spleen mass ratio, change compared to control group” value is on record as “–9.9%”. For the same compound, in data set [4] (2000 mg/kg, 2 weeks), the “Thymus mass ratio, change compared to control group” value is on record as “–11.0%”. In data set [4] (2000 mg/kg), the “Adrenal glands mass ratio to whole body weight” value is listed as 0.03 ± 0.003%, the “Brain mass ratio to whole body weight” value was found to be 0.72 ± 0.02%, the “Heart mass ratio to whole body weight” value turned out to be 0.32 ± 0.01% and the “Kidneys mass ratio to whole body weight” value is reported as 0.64 ± 0.03%. Moreover, in data set [4] (2000 mg/kg), the “Liver mass ratio to whole body weight” value was determined as 2.77 ± 0.41%, the “Lungs mass ratio to whole body weight” value is given as 0.56 ± 0.03%, the “Ovaries mass ratio to whole body weight” value came to 0.06 ± 0.01% and the “Spleen mass ratio to whole body weight” value was found to be 0.43 ± 0.02%. In data set [4] (2000 mg/kg), the “Thymus mass ratio to whole body weight” value came to 0.16 ± 0.01%. For the same compound, the “necropsy: architectonics of internal organs location” value in data set [4] (day 15 after intragastric 300 and 2000 mg/kg) is “no pathological changes”. Besides, the “toxicity class according to the GHS classification” value in data set [4] (female, outbred white mongrel, rat, in vivo, 2 weeks) is on record as “class 5”. Moreover, the LD50 (as a rule, the dose at which mortality reaches 50%) at 2 weeks in data set [4] (female, outbred white mongrel, rat, in vivo, po, LD50 (acute oral toxicity), intragastric, female rats) was > 2000 mg/kg. The “LD50 (acute oral toxicity)” value in data set [4] (intragastric, female rats) was in the range of 2000 to 5000 mg/kg. Moreover, in data set [4] (single intragastric limit dose 2000 mg/kg, 2 weeks observation), the “death in early and distant periods of observation” value is “does not contribute to death”. Also, in data set [5], the IC50 (as a rule, the concentration that gives 50% inhibition) was 0.5 nM; the Ki (as a rule, the dissociation constant of the complex between target and ligand, obtained from inhibition or displacement) was 3.1 nM.
For the compound `C[C@@H]1C[C@H]2[C@@H]3CCC4=CC(=O)C=C[C@]4(C)[C@@]3(F)[C@@H](O)C[C@]2(C)[C@@]1(O)C(=O)CO` [dexamethasone, reference compound], the “effect on paw edema (reduction of exudative reaction)” value in the data set with rat paw edema model (dexamethasone 5 mg/kg i.p. 2 times a day for 4 days) is on record as 65%.
In the case of `Cc1ccc(-c2cc(C(F)(F)F)nn2-c2ccc(S(N)(=O)=O)cc2)cc1` [celecoxib, reference compound], in the data set with rat paw edema model (celecoxib 10 mg/kg i.p. 2 times a day for 4 days), the “effect on paw edema (reduction of exudative reaction)” value is on record as 51%.
